Publication PMC4072668, “Mass Spectrometric Detection and Characterization of Atypical Membrane-Bound Zinc-Sensitive Phosphatases Modulating GABAA Receptors” (PLoS ONE, 2014)
Like-named read-outs stand apart in the source and are kept apart here. Non-standard residues stand in square brackets, D forms with d. No end group written: not given here. pT = C[C@@H](OP(=O)(O)O)[C@H](N)C(=O)O; pS = N[C@@H](COP(=O)(O)O)C(=O)O

Assays:
[1] = tested on: membrane-bound phosphatase activities of rat washed cortical membrane; experiment: LC-MS/MS phosphatase assay, Zn2+ profile, N-terminal phosphopeptide pI2α1N-P as substrate; assay type: biochemical; settings: for IC50: substrate pI2α1N-P 10 µM, 1 mM Mg2+, 30°C, 10 min, two-step fit
Procedure: (§1) Phosphatasic activity of bovine, rat and human washed cortical membranes was measured by using synthetic phosphopeptides as substrates. Reactions were performed in presence of 50 µg/ml (total proteins) of washed cortical membrane, 10 mM Hepes-Tris pH 7.4 and 1 mM MgCl2. Enzymatic reactions were initiated by adding 10 µM of phosphopeptide incubated for 10 min at 30°C and stopped by adding ice-cold acetic acid at a final concentration of 10% (w/v). Following a 800 g centrifugation during 10 min at 4°C, the supernatants were analyzed by LC-MS/MS. […] For these reasons, and to avoid micro-capillary column obstruction we have preferentially used the micro-LC column to characterize the pharmacological profile of phosphatasic activities.
(§2) Quantification of appearance of the native peptide and disappearance of the phosphopeptide in different conditions was performed using the calibration curve plotted using the Xcalibur software (P/N 64018-XCALI version 1.3). The calibration curve and linear regression were constructed using a series of standards, native and phosphorylated equimolar mixture, N- or C-terminal peptides at different concentrations 0.5, 1, 2, 5 and 10 µM (n = 2) in 10 mM Hepes pH 7.4, 1 mM Mg^2+ and 10% acetic acid, which was the same milieu condition as in the phosphatase assay after stopping reactions. The linear regression represents peak area of MS/MS chromatogram spectra depending on the peptide concentration (Figure S1).
(§3) Different effectors were tested by addition to the incubation medium at variable concentration: the dicationic ions Mg^2+, Ca^2+, Zn^2+ were used as chloride, the polycation spermine as hydrochloride, the anion F^− as sodium fluoride (NaF), and the inhibitors of some known phosphatases okadaic acid and the two (+/−) enantiomers of p–bromotetramisole oxalate (p-Br-t). For the inhibitory effects, relative 50% inhibition concentration (IC50) values were either determined graphically with a log-scale for the concentration axis or by the ‘log (inhibitor) vs. response’ nonlinear fit of Prism 5 software (GraphPad), considering activity in the absence of inhibitor as 100%.
Assays were performed in presence of rat washed cortical membrane at 50 µg/ml of total protein concentration, with increasing amounts of Zn^2+ ions in 10 mM Hepes buffer pH 7.4 with 1 mM Mg^2+ in presence of. Incubations were performed at 30°C during 10 min. The activities are expressed as a percentage of that of control samples. […] (H) PPase activity at very low Zn^2+ concentrations (1 pM–200 nM). The IC50 values are mentioned with their 95% confidence intervals and calculated from nonlinear regression curve fits using GraphPad Prism 5.

[2] = tested on: membrane-bound phosphatase activities of rat washed cortical membrane; experiment: LC-MS/MS phosphatase assay, Zn2+ profile, C-terminal phosphopeptide pI2α1C-P as substrate; assay type: biochemical; settings: for IC50: substrate pI2α1C-P 10 µM, 1 mM Mg2+, 30°C, 10 min, two-step fit
Procedure: as §1, §2
Different effectors were tested by addition to the incubation medium at variable concentration: the dicationic ions Mg^2+, Ca^2+, Zn^2+ were used as chloride, the polycation spermine as hydrochloride, the anion F^− as sodium fluoride (NaF), and the inhibitors of some known phosphatases okadaic acid and the two (+/−) enantiomers of p–bromotetramisole oxalate (p-Br-t). […]
Assays were performed in presence of rat washed cortical membrane at 50 µg/ml of total protein concentration, with increasing amounts of Zn^2+ ions in 10 mM Hepes buffer pH 7.4 with 1 mM Mg^2+ in presence of. […] The activities are expressed as a percentage of that of control samples. […]

[3] = tested on: membrane-bound phosphatase dephosphorylating GABAAR; parameters: method as in PMID 10762086; settings: cited from earlier work
[4] = tested on: membrane-bound phosphatase activities of washed cortical membrane; experiment: LC-MS/MS phosphatase assay with effectors, N-terminal phosphopeptide pI2α1N-P as substrate; assay type: biochemical; settings: substrate pI2α1N-P; for IC50: 1 mM Mg2+, 30°C, 10 min, read-out: IC50
Procedure: as §1, §2, §3
Figure 4 Effects of various inhibitors on the membrane-bound phosphatase activities. […] Incubations were performed at 30°C during 10 min. The activities are expressed as a percentage of that of control samples without inhibitors. Inhibition profiles of PPase activities by okadaic acid were performed using N-terminal phosphopeptide (A) or C-terminal phosphopeptide (B) as substrate. The data points are means ± SEM of 3 experiments. The red arrows indicate the different IC50. […] Data points are the average ± SEM of duplicate assays. (D) Effect of Ca^2+ ions, fluoride (F^−) and spermine (SPM^4+) on PPase activity using N-terminal phosphopeptide as substrate.

alkaline phosphatase = tested on: alkaline phosphatase; parameters: method as in PMID 10898722; settings: cited from earlier work
[5] = tested on: GABAA receptor currents in pyramidal neurons; parameters: method as in PMID 15342727; settings: cited from earlier work
[6] = tested on: membrane-bound phosphatase activities of washed cortical membranes; experiment: Enzyme kinetics of membrane-bound phosphatase activities with phosphopeptide substrates; assay type: biochemical; settings: for Km / Vmax: phosphopeptide as substrate, 50 µg/ml membrane proteins, 30°C, 10 min, Michaelis-Menten fit
Procedure: Phosphatasic activity of bovine, rat and human washed cortical membranes was measured by using synthetic phosphopeptides as substrates. Reactions were performed in presence of 50 µg/ml (total proteins) of washed cortical membrane, 10 mM Hepes-Tris pH 7.4 and 1 mM MgCl2. Enzymatic reactions were initiated by adding 10 µM of phosphopeptide incubated for 10 min at 30°C and stopped by adding ice-cold acetic acid at a final concentration of 10% (w/v). Following a 800 g centrifugation during 10 min at 4°C, the supernatants were analyzed by LC-MS/MS. This centrifugation step was critical to remove membrane suspension that interferes with nano-LC and MS analysis. For these reasons, and to avoid micro-capillary column obstruction we have preferentially used the micro-LC column to characterize the pharmacological profile of phosphatasic activities.
The best conditions of incubation time and total protein concentration of washed cortical membranes were determined for assaying phosphatase activity with 10 µM of pI2α1 phosphopeptide. Protein concentration varied from 1 to 300 µg/ml and incubation time from 0.25 to 30 min, at fixed temperature of 30°C as in previous studies. Initial velocity of the enzymatic reaction was determined by linear regression (slope value). The optimal conditions were obtained with 50 µg/ml total membrane protein concentration and 10 min incubation time. The effects of the substrate effects were measured by varying the pI2α1N-P and pI2α1C-P concentrations between 3 and 75 µM. Saturation plots were generated via non-linear fit to the Michaelis-Menten equation. The affinity constant (Km) and maximum velocity (Vmax) were evaluated from this curve fitting using the Prism 5 computer program (GraphPad). Double-reciprocal plots with the Lineweaver-Burk equation were also drawn by linear fits using the same software.
Figure 2 LC-MS/MS detection and kinetics analysis of GABAAR α1-subunit phosphatase activities. (A) Dose-dependency at various protein concentrations; (B) time course of phosphatase activities using 50 µg/ml of total proteins of washed cortical membranes from bovine brain and (C) from human epileptic tissue. The N-terminal phosphopeptide (pI2α1N-P) used as substrate at 10 µM was incubated during 10 min at 30°C in 10 mM Hepes (pH 7.4) in the presence of 1 mM Mg^2+. The enzymatic reactions were stopped with 10% acetic acid and the samples were analyzed by LC-MS/MS as in figure 1E, F. The dephosphorylation rate was quantified by measuring simultaneously the quantity of the produced native peptide (pI2α1N) and of the remaining phosphorylated substrate (pI2α1N-P). Error bars represent SEM of two experiments. Kinetic analysis of GABAAR α1-subunit phosphatase activities was investigated using N-terminal (pI2α1N-P) and C-terminal (pI2α1C-P) phosphopeptides. All experiments were carried out with 50 µg/ml membrane proteins concentration, incubated at 30°C during 10 min, in presence of different concentrations of substrates. (D) Saturation plot of the initial velocity Vi versus [pI2α1N-P] and Lineweaver-Burk plots of 1/V versus 1/[pI2α1N-P] […] (E) Saturation plot of Vi versus [pI2α1C-P] and Lineweaver-Burk plot of 1/V versus 1/[pI2α1C-P] (inset). The data points are means ± SEM of 3 experiments.

[7] = read-out: IC50 (H), high affinity
[8] = read-out: IC50 (L), low affinity

[Cl-].[Cl-].[Zn+2] [Zn^2+, Zinc chloride]
effect on phosphatasic activities at low concentrations ([1]; 1 pM–200 nM Zn2+, substrate pI2α1N-P): several activations
inhibition of phosphatase activities ([1]; 1 mM Zn2+, substrate pI2α1N-P): completely inhibited
IC50 [1, 7]: 1.7 µM
IC50 [1, 8]: 48 µM
inhibition of phosphatase activities ([2]; 1 mM Zn2+, substrate pI2α1C-P): completely inhibited
IC50 [2, 7]: 0.6 µM
IC50 [2, 8]: 15 µM
inhibition of membrane-bound phosphatase activity ([3]; concentrations between 0.1 µM-1 mM): inhibited
inhibition of GABAAR dephosphorylation ([3]; washed brain membranes, autoradiographic method): complete inhibition

[F-].[Na+] [fluoride (F^−), sodium fluoride]
inhibition of phosphatase activities ([4]; 1 mM): 45%
inhibition of phosphatase activities ([4]; 10 mM): ~90%
IC50 ([4]; listed as Sodium fluoride): < 2000 µM
IC50 [4]: ~2000 µM

Brc1ccc(C2CN3CCSC3=N2)cc1.O=C(O)C(=O)O (single isomer, unassigned; (+)) [(+)-p--Br--t, (+)-p-bromotetramisole oxalate]
inhibition of membrane phosphatase activities ([4]; 1 mM): completely inhibited
IC50 [4]: 100 µM
inhibition of alkaline phosphatase (alkaline phosphatase): completely insensitive

[Na+].[Na+].[Na+].[O]=[V]([O-])([O-])[O-] [sodium orthovanadate]
effect on rundown of GABAA currents [5]: reduced rundown
inhibition of membrane phosphatases [3]: inhibits

[Cl-].[Cl-].[Mg+2] [Mg^2+, MgCl2]
effect of increasing concentration on phosphatase activities ([4]; 1 µM to 1 mM, data not shown): moderate but not linear increase

NYF[pT]KRGYAWDGK [pI2α1N-P]
Km [6]: 25.4 ± 3.3 µM
Vmax [6]: 2320±130 pM.min^−1.ml^−1

EPKKTFNSV[pS]KIDR [pI2α1C-P]
reduction in catalytic efficiency (Vmax/Km) compared to the phosphothreonine peptide PI2α1N-P [6]: eightfold reduction
Km [6]: 116 ± 20 µM
Vmax [6]: 1290±150 pM.min^−1.ml^−1

Brc1ccc(C2CN3CCSC3=N2)cc1.O=C(O)C(=O)O (single isomer, unassigned; (-)) [(−)-p--Br--t, (−)-p-bromotetramisole oxalate]
inhibition of membrane phosphatase activities ([4]; 1 mM): completely inhibited
IC50 [4]: 300 µM
inhibition of alkaline phosphatase (alkaline phosphatase): potent alkaline phosphatase inhibitor

NCCCNCCCCNCCCN [Spermine, spermine]
inhibition of phosphatase activities ([4]; 1 mM): 10%
inhibition of phosphatase activities ([4]; 10 mM): 20%
IC50 [4]: > 10000 µM

[Ca+2].[Cl-].[Cl-] [Ca^2+, CaCl2]
inhibition of phosphatase activities ([4]; 1 mM): 30%
inhibition of phosphatase activities ([4]; 10 mM): less than 60%
IC50 [4]: ~5000 µM
